The supplement of paper PMC11451515

Legend:
Settings in all cases: 48 h
SEM cells [1] = test: AUC of viability dose-response curve (% viability x log10 dose units); higher = less sensitive
Method in brief: (§1)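 Leukemia cells adapted to each medium were seeded at 500 or 1000 cells/well in 1536-well plates and dosed with library compounds in DMSO at 11 threefold doses from 47 μM to 0.79 nM for 48 h at 37°C. CellTiter-Glo One luminescence was normalised per plate to DMSO and cell-free wells, then fitted with a four-parameter log-logistic model over log10 doses. Area under the curve was taken from this fit by the trapezoidal rule, with curves above full viability scaled and curves failing quality control removed.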

NOMO1 [2] = test: as above
Method in brief: as §1

P12-Ichikawa [3] = test: as above
Method in brief: as §1

SEM cells [4] = test: cell viability relative to DMSO control; higher = less cytotoxic
Method in brief: (§2)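 Viability was expressed as a per-plate percentage of DMSO wells, with cell-free wells as background. Leukemia cells (NOMO1 or SEM at 500 cells/well, P12-Ichikawa at 1000 cells/well) were adapted for at least four passages in each medium and seeded in 1536-well plates (5 μl). Library compounds in DMSO were pin-dosed over an 11-point threefold series from 47 μM to 0.79 nM, and CellTiter-Glo One luminescence was read after 48 h at 37°C.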

NOMO1 [5] = test: as above
Method in brief: as §2

P12-Ichikawa [6] = test: as above
Method in brief: as §2

Oc1ccc(C2CNCCc3c2cc(O)c(O)c3Cl)cc1 (stereo unspecified)
AUC of viability dose-response curve
Settings | NOMO1 [2] | P12-Ichikawa [3] | SEM cells [1]
HPLM + 10% dialyzed FBS | 449 | 453 | 441
RPMI 5 mM glucose + 10% FBS | 425 | 456 | 426
RPMI 5 mM glucose + 10% dialyzed FBS | 454 | 427 | 438

cell viability [%]
Settings | NOMO1 [5] | P12-Ichikawa [6] | SEM cells [4]
HPLM + 10% dialyzed FBS, 0.000781 µM | 91.8 | 92.6 | 98
HPLM + 10% dialyzed FBS, 0.00234 µM | 106 | 92.3 | 103
HPLM + 10% dialyzed FBS, 0.00702 µM | 93.7 | 86.9 | 90
HPLM + 10% dialyzed FBS, 0.0211 µM | 106 | 97.7 | 91.2
HPLM + 10% dialyzed FBS, 0.0632 µM | 107 | 92.7 | 91.5
HPLM + 10% dialyzed FBS, 0.19 µM | 101 | 98.5 | 104
HPLM + 10% dialyzed FBS, 0.569 µM | 85.3 | 92.4 | 90.8
HPLM + 10% dialyzed FBS, 1.71 µM | 106 | 95.7 | 48.5
HPLM + 10% dialyzed FBS, 5.12 µM | 115 | 96.1 | 102
HPLM + 10% dialyzed FBS, 15.4 µM | 103 | 100 | 89.5
HPLM + 10% dialyzed FBS, 46.1 µM | 115 | 99.4 | 108
RPMI 5 mM glucose + 10% FBS, 0.000781 µM | 86 | 87 | 83
RPMI 5 mM glucose + 10% FBS, 0.00234 µM | 90.1 | 98.4 | 95
RPMI 5 mM glucose + 10% FBS, 0.00702 µM | 81.7 | 95.8 | 97.2
RPMI 5 mM glucose + 10% FBS, 0.0211 µM | 96.5 | 96.8 | 96.6
RPMI 5 mM glucose + 10% FBS, 0.0632 µM | 93.6 | 86.5 | 84.6
RPMI 5 mM glucose + 10% FBS, 0.19 µM | 80.7 | 98.8 | 97.5
RPMI 5 mM glucose + 10% FBS, 0.569 µM | 90.7 | 90.3 | 90.8
RPMI 5 mM glucose + 10% FBS, 1.71 µM | 96.3 | 98 | 47.5
RPMI 5 mM glucose + 10% FBS, 5.12 µM | 85.8 | 96.1 | 103
RPMI 5 mM glucose + 10% FBS, 15.4 µM | 90.3 | 103 | 91.4
RPMI 5 mM glucose + 10% FBS, 46.1 µM | 87.4 | 101 | 94.6
RPMI 5 mM glucose + 10% dialyzed FBS, 0.000781 µM | 84.1 | 90.3 | 81.9
RPMI 5 mM glucose + 10% dialyzed FBS, 0.00234 µM | 95.9 | 93.3 | 93.1
RPMI 5 mM glucose + 10% dialyzed FBS, 0.00702 µM | 98.2 | 80.2 | 86.6
RPMI 5 mM glucose + 10% dialyzed FBS, 0.0211 µM | 95.6 | 86.9 | 96.6
RPMI 5 mM glucose + 10% dialyzed FBS, 0.0632 µM | 99.9 | 84.7 | 76.9
RPMI 5 mM glucose + 10% dialyzed FBS, 0.19 µM | 94.3 | 96.9 | 112
RPMI 5 mM glucose + 10% dialyzed FBS, 0.569 µM | 95.7 | 86.1 | 100
RPMI 5 mM glucose + 10% dialyzed FBS, 1.71 µM | 93.4 | 88.5 | 70.2
RPMI 5 mM glucose + 10% dialyzed FBS, 5.12 µM | 95.2 | 94.1 | 114
RPMI 5 mM glucose + 10% dialyzed FBS, 15.4 µM | 101 | 90 | 101
RPMI 5 mM glucose + 10% dialyzed FBS, 46.1 µM | 88.5 | 92.7 | 102

NC/1=N/C(=O)C2=C([NH]C=C2CCC3=CC=C(C=C3)C(=O)N[C@@H](CCC(O)=O)C(O)=O)N1
AUC of viability dose-response curve
Settings | NOMO1 [2] | P12-Ichikawa [3] | SEM cells [1]
HPLM + 10% dialyzed FBS | 358 | 372 | 355
RPMI 5 mM glucose + 10% FBS | 446 | 408 | 444
RPMI 5 mM glucose + 10% dialyzed FBS | 398 | 409 | 371

cell viability [%]
Settings | NOMO1 [5] | P12-Ichikawa [6] | SEM cells [4]
HPLM + 10% dialyzed FBS, 0.000781 µM | 107 | 106 | 118
HPLM + 10% dialyzed FBS, 0.00234 µM | 99.2 | 109 | 103
HPLM + 10% dialyzed FBS, 0.00702 µM | 110 | 106 | 107
HPLM + 10% dialyzed FBS, 0.0211 µM | 104 | 107 | 115
HPLM + 10% dialyzed FBS, 0.0632 µM | 107 | 99.8 | 114
HPLM + 10% dialyzed FBS, 0.19 µM | 116 | 114 | 110
HPLM + 10% dialyzed FBS, 0.569 µM | 78.2 | 105 | 80.2
HPLM + 10% dialyzed FBS, 1.71 µM | 46.2 | 64.4 | 45.7
HPLM + 10% dialyzed FBS, 5.12 µM | 41.8 | 35.4 | 39.4
HPLM + 10% dialyzed FBS, 15.4 µM | 38.8 | 29.3 | 38.3
HPLM + 10% dialyzed FBS, 46.1 µM | 29.7 | 28.2 | 35.8
RPMI 5 mM glucose + 10% FBS, 0.000781 µM | 88 | 102 | 98.3
RPMI 5 mM glucose + 10% FBS, 0.00234 µM | 92.2 | 113 | 105
RPMI 5 mM glucose + 10% FBS, 0.00702 µM | 103 | 108 | 103
RPMI 5 mM glucose + 10% FBS, 0.0211 µM | 94.2 | 107 | 107
RPMI 5 mM glucose + 10% FBS, 0.0632 µM | 96.2 | 110 | 99.7
RPMI 5 mM glucose + 10% FBS, 0.19 µM | 94.4 | 108 | 107
RPMI 5 mM glucose + 10% FBS, 0.569 µM | 93.9 | 96.9 | 91.9
RPMI 5 mM glucose + 10% FBS, 1.71 µM | 112 | 90 | 100
RPMI 5 mM glucose + 10% FBS, 5.12 µM | 92.5 | 64.5 | 83.2
RPMI 5 mM glucose + 10% FBS, 15.4 µM | 78.9 | 54.9 | 73.9
RPMI 5 mM glucose + 10% FBS, 46.1 µM | 75.5 | 47.5 | 69.8
RPMI 5 mM glucose + 10% dialyzed FBS, 0.000781 µM | 104 | 96.5 | 98.8
RPMI 5 mM glucose + 10% dialyzed FBS, 0.00234 µM | 91.4 | 106 | 95
RPMI 5 mM glucose + 10% dialyzed FBS, 0.00702 µM | 96 | 103 | 100
RPMI 5 mM glucose + 10% dialyzed FBS, 0.0211 µM | 105 | 103 | 97.3
RPMI 5 mM glucose + 10% dialyzed FBS, 0.0632 µM | 103 | 104 | 97
RPMI 5 mM glucose + 10% dialyzed FBS, 0.19 µM | 104 | 104 | 107
RPMI 5 mM glucose + 10% dialyzed FBS, 0.569 µM | 103 | 99.1 | 109
RPMI 5 mM glucose + 10% dialyzed FBS, 1.71 µM | 86 | 88.4 | 52.2
RPMI 5 mM glucose + 10% dialyzed FBS, 5.12 µM | 40.5 | 56.1 | 36.2
RPMI 5 mM glucose + 10% dialyzed FBS, 15.4 µM | 40.1 | 48.1 | 32.3
RPMI 5 mM glucose + 10% dialyzed FBS, 46.1 µM | 38.3 | 44.4 | 23.3
